Results taken from patent publication US20250057951A1, “DISCERNIBLE CELL SURFACE PROTEIN VARIANTS OF CD117 FOR USE IN CELL THERAPY” (UNIVERSITÄT BASEL, priority 2021, published 2025).

B1: D121V (receptor)
extracellular domains 1, 2 and 3: QPSVSPGEPSPPSIHPGKSDLIVRVGDEIRLLCTDPGFVKWTFEILDETNENKQNEWITEKAEATNTGKYTCTNKHGLSNSIYVFVRDPAKLFLVVRSLYGKEDNDTLVRCPLTDPEVTNYSLKGCQGKPLPKDLRFIPDPKAGIMIKSVKRAYHRLCLHCSVDQEGKSVLSEKFILKVRPAFKAVPVVSVSKASYLLREGEEFTVTCTIKDVSSSVYSTWKRENSQTKLQEKYNSWHHGDFNYERQATLTISSARVNDSGVFMCYANNTFGSANVTTTLEVVD
notes: not in the list MOLECULES; also called human CD117 D1-2-3 variant D121V
B2: R122S (receptor)
extracellular domains 1, 2 and 3: QPSVSPGEPSPPSIHPGKSDLIVRVGDEIRLLCTDPGFVKWTFEILDETNENKQNEWITEKAEATNTGKYTCTNKHGLSNSIYVFVRDPAKLFLVDSSLYGKEDNDTLVRCPLTDPEVTNYSLKGCQGKPLPKDLRFIPDPKAGIMIKSVKRAYHRLCLHCSVDQEGKSVLSEKFILKVRPAFKAVPVVSVSKASYLLREGEEFTVTCTIKDVSSSVYSTWKRENSQTKLQEKYNSWHHGDFNYERQATLTISSARVNDSGVFMCYANNTFGSANVTTTLEVVD
notes: not in the list MOLECULES; also called human CD117 D1-2-3 variant R122S
B3: R122L (receptor)
extracellular domains 1, 2 and 3: QPSVSPGEPSPPSIHPGKSDLIVRVGDEIRLLCTDPGFVKWTFEILDETNENKQNEWITEKAEATNTGKYTCTNKHGLSNSIYVFVRDPAKLFLVDLSLYGKEDNDTLVRCPLTDPEVTNYSLKGCQGKPLPKDLRFIPDPKAGIMIKSVKRAYHRLCLHCSVDQEGKSVLSEKFILKVRPAFKAVPVVSVSKASYLLREGEEFTVTCTIKDVSSSVYSTWKRENSQTKLQEKYNSWHHGDFNYERQATLTISSARVNDSGVFMCYANNTFGSANVTTTLEVVD
notes: not in the list MOLECULES; also called human CD117 D1-2-3 variant R122L
B4: R122E (receptor)
extracellular domains 1, 2 and 3: QPSVSPGEPSPPSIHPGKSDLIVRVGDEIRLLCTDPGFVKWTFEILDETNENKQNEWITEKAEATNTGKYTCTNKHGLSNSIYVFVRDPAKLFLVDESLYGKEDNDTLVRCPLTDPEVTNYSLKGCQGKPLPKDLRFIPDPKAGIMIKSVKRAYHRLCLHCSVDQEGKSVLSEKFILKVRPAFKAVPVVSVSKASYLLREGEEFTVTCTIKDVSSSVYSTWKRENSQTKLQEKYNSWHHGDFNYERQATLTISSARVNDSGVFMCYANNTFGSANVTTTLEVVD
notes: not in the list MOLECULES; also called human CD117 D1-2-3 variant R122E
B5: S123E: variant of human CD117 with substitution S123E (protein)
chain: QPSVSPGEPSPPSIHPGKSDLIVRVGDEIRLLCTDPGFVKWTFEILDETNENKQNEWITEKAEATNTGKYTCTNKHGLSNSIYVFVRDPAKLFLVDRELYGKEDNDTLVRCPLTDPEVTNYSLKGCQGKPLPKDLRFIPDPKAGIMIKSVKRAYHRLCLHCSVDQEGKSVLSEKFILKVRPAFKAVPVVSVSKASYLLREGEEFTVTCTIKDVSSSVYSTWKRENSQTKLQEKYNSWHHGDFNYERQATLTISSARVNDSGVFMCYANNTFGSANVTTTLEVVDKG
B6: D121H: variant of human CD117 with substitution D121H (protein)
chain: QPSVSPGEPSPPSIHPGKSDLIVRVGDEIRLLCTDPGFVKWTFEILDETNENKQNEWITEKAEATNTGKYTCTNKHGLSNSIYVFVRDPAKLFLVHRSLYGKEDNDTLVRCPLTDPEVTNYSLKGCQGKPLPKDLRFIPDPKAGIMIKSVKRAYHRLCLHCSVDQEGKSVLSEKFILKVRPAFKAVPVVSVSKASYLLREGEEFTVTCTIKDVSSSVYSTWKRENSQTKLQEKYNSWHHGDFNYERQATLTISSARVNDSGVFMCYANNTFGSANVTTTLEVVDKG
B7: E73L: variant of human CD117 with substitution E73L (protein)
chain: QPSVSPGEPSPPSIHPGKSDLIVRVGDEIRLLCTDPGFVKWTFEILDLTNENKQNEWITEKAEATNTGKYTCTNKHGLSNSIYVFVRDPAKLFLVDRSLYGKEDNDTLVRCPLTDPEVTNYSLKGCQGKPLPKDLRFIPDPKAGIMIKSVKRAYHRLCLHCSVDQEGKSVLSEKFILKVRPAFKAVPVVSVSKASYLLREGEEFTVTCTIKDVSSSVYSTWKRENSQTKLQEKYNSWHHGDFNYERQATLTISSARVNDSGVFMCYANNTFGSANVTTTLEVVDKG
B8: E73R: variant of human CD117 with substitution E73R (protein)
chain: QPSVSPGEPSPPSIHPGKSDLIVRVGDEIRLLCTDPGFVKWTFEILDRTNENKQNEWITEKAEATNTGKYTCTNKHGLSNSIYVFVRDPAKLFLVDRSLYGKEDNDTLVRCPLTDPEVTNYSLKGCQGKPLPKDLRFIPDPKAGIMIKSVKRAYHRLCLHCSVDQEGKSVLSEKFILKVRPAFKAVPVVSVSKASYLLREGEEFTVTCTIKDVSSSVYSTWKRENSQTKLQEKYNSWHHGDFNYERQATLTISSARVNDSGVFMCYANNTFGSANVTTTLEVVDKG

Experiments:
CD117 = test: Gene editing of CD117 in TF-1 cells, loss of SR-1 binding by FACS; type: cell-based, human; conditions: FACS 7 days after electroporation with Cas9, crRNA/tracrRNA or sgRNA and HDR template
Experimental: Gene editing of CD117 was performed in TF-1 cells using HDR. 12 different crRNAs were tested, six of them targeting amino acid residue E73 (Table 3), and six of them targeting amino acid residues 120-123 (Table 3).
Binding of antibody SR-1 to TF-1 cells was measured by FACS 7 days after electroporation with Cas9 protein, crRNA/tracrRNA or sgRNA and HDR template (Table 4).

TF-1 cells = test: SCF-dependent proliferation, SCF titration on TF-1 cells with CD117 variants (CellTiter-Glo); type: cell-based, human
Experimental: In another experiment, SCF-dependent proliferation of variants E73K, E73Y, D121K, S123F and S123K was compared against wildtype CD117. TF-1 cells were seeded at a cell concentration of 150 000 cells/ml in sterile, white cell culture treated plates with transparent bottom in RPMI+GlutaMax+10% FCS. Cells were treated with a titration of SCF. After 3 days of incubation a CellTiter-Glo 2.0 assay (Promega) was performed, luminescence was read in a luminometer (Envision plate reader) and EC50's was determined. Two different experiments with triplicates in each experiment were performed.

antibody Refmab #1 [1] = test: Octet screen: binding of CD117 D1-2-3 variants to captured Refmab #1; conditions: nm shift at end of association, top analyte concentration (500 nM)
Sequence of antibody Refmab #1 (as listed by the source): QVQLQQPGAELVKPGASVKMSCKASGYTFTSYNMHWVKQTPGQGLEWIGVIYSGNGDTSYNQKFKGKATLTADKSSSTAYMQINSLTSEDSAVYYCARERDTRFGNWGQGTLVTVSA
Sequence of antibody Refmab #1 (as listed by the source): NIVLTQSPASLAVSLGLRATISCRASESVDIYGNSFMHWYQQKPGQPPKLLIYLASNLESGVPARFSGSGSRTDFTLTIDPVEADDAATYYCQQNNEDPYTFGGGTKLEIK
Experimental: A more sophisticated analysis of binding to the elected variants was performed with antibody Refmab #1. Binding of Refmab #1 to wt and variants (analyte) was measured in an Octet system RED96e or R8 at 25° C. with shaking at 1,000 rpm using 1× kinetic buffer (Sartorius, PN: 18-1105). First, the elected variants were screened for their ability to bind Refmab #1 using three different concentrations of analytes. Antibody Refmab #1 was captured by Anti-Human Fc capture biosensor (AHC) (Sartorius, PN: 18-5060) for 300 s at 0.5 to 1 μg/mL. As an analyte, human CD117 wt and variants, containing only domains 1, 2 and 3 (CD117 D1-2-3), was titrated at 500 nM, 50 nM and 5 nM. Association and dissociation of the analyte to Refmab #1 was monitored for 300 s and 900 s, respectively. Reference subtraction was performed against buffer only wells. AHC tips were regenerated using 10 mM Gly-HCl pH 1.7. Data were analyzed using the Octet Data Analysis software HT 12.0. Data were fitted (when possible) to a 1:1 binding model. Kinetic rates ka and […] globally fitted. Binding level of the elected variants were compared to wild type and are shown as percent in FIG. 7. For this qualitative analysis, the binding level of the top analyte concentration at end of the association step was used.

antibody Refmab #1 [2] = test: Octet titration, steady state KD of CD117 D1-2-3 variants to Refmab #1; type: binding; conditions: for Kd: 7 concentrations 2000-5 nM, steady state, two individual experiments; for change of KD compared to wild type CD117: KD variant vs wild type; for binding of Refmab #1 at 2000 nM variant: nm shift higher than 0.1 nm counts as binding
Experimental: To further characterize binding of Refmab #1 to CD117 D1-2-3 variants E73K, E73L, E73R, E73Y, D121H, D121K, S123K and S123F, the analytes were titrated at 7 different concentrations (from 2000 nM to 5 nM). Antibody Refmab #1 was captured by AHC biosensors for 300 s at 0.5 to 1 μg/mL. Association and dissociation to Refmab #1 was extended to 600 s and 1000 s, respectively. Steady state analysis was performed.

Biotinylated Avitag-hSCF = target: T1, Biotinylated Avitag-hSCF (human, UniProt P21583 26-190, limits assumed, biotinylated Avitag); test: BLI (Octet), steady state: biotinylated SCF on streptavidin biosensor, CD117 D1-2-3 variant as analyte; KD relative to WT
T1 construct: Bought reagent; also called hSCF (Acros Biosystems SCF-H82E1)
T1 sequence (P21583 26-190 limits assumed): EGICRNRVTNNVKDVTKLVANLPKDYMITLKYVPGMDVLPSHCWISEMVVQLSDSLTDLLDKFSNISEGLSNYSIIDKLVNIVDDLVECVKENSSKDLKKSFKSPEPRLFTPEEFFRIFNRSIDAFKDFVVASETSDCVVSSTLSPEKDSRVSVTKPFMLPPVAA
Experimental: Domains 4 and 5 were used as a negative, non-binding control.
Association was monitored for 300 s and dissociation for 600 s. […] Reference subtraction was performed against buffer only wells. Biosensors were not regenerated and a new set of SA biosensors was used for each analyte. Data were analyzed using the Octet Data Analysis software HT 12.0. Steady state data analysis was performed due to the fast on/off nature of the interaction.

[3] = titration of SCF, 3 days, TF-1 cells with the CD117 variant

Molecule	KnockOut Efficiency (loss of binding of SR-1 compared to wild type cells) (CD117) [%]	binding to Refmab #1 compared to wild type (antibody Refmab #1 [1])	other results
KIT_120_123_3: crRNA TTGTTGACCGCTCCTTGTAT, SEQ ID NO: 11, targets residues 120-123 of CD117 (chemistry not given here)	71.2		
KIT_E73_3: crRNA CAAATGGACTTTTGAGATCC, SEQ ID NO: 5, targets E73 of CD117 (chemistry not given here)	37.2		
KIT_E73_5: crRNA ATGAGAATAAGCAGAATGAA, SEQ ID NO: 7, targets E73 of CD117 (chemistry not given here)	68.5		
KIT_120_123_4: crRNA CTTGTTGACCGCTCCTTGTA, SEQ ID NO: 12, targets residues 120-123 of CD117 (chemistry not given here)	60.0		
KIT_E73_1: crRNA CTGATCCGGGCTTTGTCAAA, SEQ ID NO: 3, targets E73 of CD117 (chemistry not given here)	10.8		
KIT_120_123_6: crRNA GCGGTCAACAAGGAAAAGCT, SEQ ID NO: 14, targets residues 120-123 of CD117 (chemistry not given here)	60.6		
KIT_E73_4: crRNA TATTCTCATTCGTTTCATCC, SEQ ID NO: 6, targets E73 of CD117 (chemistry not given here)	60.1		
KIT_E73_2: crRNA AAAGTCCATTTGACAAAGCC, SEQ ID NO: 4, targets E73 of CD117 (chemistry not given here)	25.7		
S123F: variant of human CD117 with substitution S123F		particular strong decrease in binding	EC50 Average (TF-1 cells; average of two experiments): 3.82 ± 0.19 ng/mL; EC50 Experiment #1 (TF-1 cells; [3]): 4.01 ng/mL; EC50 Experiment #2 (TF-1 cells; [3]): 3.63 ng/mL; Kd (antibody Refmab #1 [2]): 1500 nM; change of KD compared to wild type CD117 (antibody Refmab #1 [2]): around 1,500 fold
KIT_120_123_1: crRNA GTTGTCTTCTTTCCCATACA, SEQ ID NO: 9, targets residues 120-123 of CD117 (chemistry not given here)	64.1		
B1			binding result (Biotinylated Avitag-hSCF): binds
B2		particular strong decrease in binding	binding result (Biotinylated Avitag-hSCF): binds
B3			binding result (Biotinylated Avitag-hSCF): binds
B4		particular strong decrease in binding	binding result (Biotinylated Avitag-hSCF): binds
B5		particular strong decrease in binding	binding of Refmab #1 at 2000 nM variant (antibody Refmab #1 [2]): do not show any binding
B6		particular strong decrease in binding	binding of Refmab #1 at 2000 nM variant (antibody Refmab #1 [2]): No binding
B7			Kd (antibody Refmab #1 [2]): 485 nM; change of KD compared to wild type CD117 (antibody Refmab #1 [2]): around 500 fold
B8		particular strong decrease in binding	Kd (antibody Refmab #1 [2]): 958 nM; change of KD compared to wild type CD117 (antibody Refmab #1 [2]): around 1000 fold
